From patent publication US10316017B2, “COT modulators and methods of use thereof” (Gilead Sciences, Inc., priority 2015, dated 2019)

How the values were obtained:
[1] = molecular target: T1, human Cot catalytic domain (30-397 amino acids) (Homo sapiens, UniProt P41279); test: High Throughput Cot Biochemical Assay (KinEASE TR-FRET); details: Cot KinEASE TR-FRET (HTRF) biochemical assay, 400 μM ATP; read-out: IC50 HTRF
T1 construct: Purified recombinant human Cot catalytic domain (30-397 amino acids) was purchased from Cama Biosciences; purchased Cama Biosciences (so in the source)
Method in brief: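 TR-FRET readout: Eu-labeled phospho-specific antibody binds XL665-tagged STK3 peptide after phosphorylation by Cot (aa 30-397, 5 nM). Conditions: 400 μM ATP, 1 μM peptide, MOPS pH 7.0 buffer with MgOAc, DTT, BSA, NP-40, glycerol; 0.1% DMSO.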

[2] = system: TNFα production in LPS-stimulated human monocytes; test: Cot Monocyte TNFα Cell Based Assay; details: Homo sapiens, Monocyte, TNFα in LPS-stimulated human monocytes; read-out: EC50 TNF
Method in brief: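 TR-FRET read-out of total secreted TNFα, normalized as % control (unstimulated = 0%, LPS-stimulated = 100%). Cells (5,000/well) were exposed to compound 1 h at 37 °C, then to 50 pg/ml LPS for a further 4 h.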

T1 sequence (P41279 30-397): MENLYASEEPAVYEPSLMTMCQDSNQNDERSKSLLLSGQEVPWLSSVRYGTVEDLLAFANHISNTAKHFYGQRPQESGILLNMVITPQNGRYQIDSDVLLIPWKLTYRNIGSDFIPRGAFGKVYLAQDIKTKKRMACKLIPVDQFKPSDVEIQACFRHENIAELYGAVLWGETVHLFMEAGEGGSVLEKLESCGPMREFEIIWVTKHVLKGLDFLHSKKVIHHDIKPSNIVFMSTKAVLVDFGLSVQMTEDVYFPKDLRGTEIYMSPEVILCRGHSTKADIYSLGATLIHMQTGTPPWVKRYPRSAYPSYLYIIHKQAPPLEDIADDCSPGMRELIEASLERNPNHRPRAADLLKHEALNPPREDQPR

Structure (SMILES)	IC50 [1]	EC50 [2]
[2H][C@](Nc1cc2c(NCC(C)(C)C)c(C#N)cnc2c(C)c1F)(c1ccc(F)cc1)c1cn(C2CC2)nn1 [Example 157, 6-(((1-cyclopropyl-1H-1,2,3-triazol-4-yl)(4-fluorophenyl)methyl-d)amino)-7-fluoro-8-methyl-4-(neopentylamino) quinoline-3-carbonitrile]	3740 nM	> 10000 nM
[2H][C@](Nc1cc(Cl)c2ncc(C#N)c(Nc3ccccc3OC)c2c1)(c1ccc(F)cc1)c1cn(C2CC2)nn1 [Example 160, (S)-8-chloro-6-(((1-cyclopropyl-1H-1,2,3-triazol-4-yl)(4-fluorophenyl)methyl-d)amino)-4-((2-methoxyphenyl)amino)quinoline-3-carbonitrile]	496 nM	3260 nM
[2H][C@](Nc1cc(Cl)c2ncc(C#N)c(N[C@H](c3ccccc3)[C@H]3C[C@@H]3C#N)c2c1)(c1ccc(F)cc1)c1cn(C2CC2)nn1 [Example 161, 8-chloro-4-(((S)-((1S,2S)-2-cyanocyclopropyl) (phenyl)methyl)amino)-6-(((S)-(1-cyclopropyl-1H-1,2,3-triazol-4-yl)(4-fluorophenyl)methyl-d)amino) quinoline-3-carbonitrile]	941 nM	> 10000 nM
[2H][C@](Nc1cc(Cl)c2ncc(C#N)c(N[C@H](c3ccccc3)[C@@H]3C[C@H]3C#N)c2c1)(c1ccc(F)cc1)c1cn(C2CC2)nn1 [Example 162, 8-chloro-4-(((S)-((1R,2R)-2-cyanocyclopropyl) (phenyl)methyl)amino)-6-(((S)-(1-cyclopropyl-1H-1,2,3-triazol-4-yl)(4-fluorophenyl)methyl-d)amino)quinoline-3-carbonitrile]	7890 nM	> 10000 nM
[2H][C@](Nc1cc(F)c2ncc(C#N)c(N[C@@H](CCC#N)c3ccccc3)c2c1)(c1cccc(C#N)c1)c1cn(C2CC2)nn1 [Example 165, 4-(((S)-3-cyano-1-phenylpropyl)amino)-6-(((S)-(3-cyanophenyl) (1-cyclopropyl-1H-1,2,3-triazol-4-yl)methyl-d)amino)-8-fluoroquinoline-3-carbonitrile]	2090 nM	6270 nM
[2H][C@](Nc1cc(-c2cn[nH]c2)c2ncc(C#N)c(NCC(C)(C)C)c2c1)(c1ccc(F)cc1)c1cn(C2CC2)nn1 [Example 168, (S)-6-(((1-cyclopropyl-1H-1,2,3-triazol-4-yl)(4-fluorophenyl)methyl-d)amino)-4-(neopentylamino)-8-(1H-pyrazol-4-yl)quinoline-3-carbonitrile]	2070 nM	9570 nM
[2H][C@](Nc1cc(-c2ccc(NC(C)=O)cc2)c2ncc(C#N)c(NCC(C)(C)C)c2c1)(c1ccc(F)cc1)c1cn(C2CC2)nn1 [Example 169, (S)-N-(4-(3-cyano-6-(((1-cyclopropyl-1H-1,2,3-triazol-4-yl)(4-fluorophenyl)methyl-d)amino)-4-(neopentylamino)quinolin-8-yl)phenyl)acetamide]	543 nM	2910 nM
[2H][C@](Nc1cc(-c2ccccc2)c2ncc(C#N)c(NCC(C)(C)C)c2c1)(c1ccc(F)cc1)c1cn(C2CC2)nn1 [Example 171, (S)-6-(((1-cyclopropyl-1H-1,2,3-triazol-4-yl)(4-fluorophenyl)methyl-d)amino)-4-(neopentylamino)-8-phenylquinoline-3-carbonitrile]	9530 nM	> 10000 nM
[2H][C@](Nc1cc(Cl)c2ncc(C#N)c(NC(C)CCO)c2c1)(c1ccc(F)cc1)c1cn(C2CC2)nn1 (stereo partly drawn) [Example 174]	837 nM	> 10000 nM
[2H][C@](Nc1cc(Cl)c2ncc(C#N)c(NC(CC)Cc3ccccc3)c2c1)(c1ccc(F)cc1)c1cn(C2CC2)nn1 (stereo partly drawn) [Example 175, 8-chloro-6-(((S)-(1-cyclopropyl-1H-1,2,3-triazol-4-yl)(4-fluorophenyl)methyl-d)amino)-4-((1-phenylbutan-2-yl)amino)quinoline-3-carbonitrile]	280 nM	5920 nM

The next molecules have a lower IC50 [1] than those just listed; values first:

IC50 [1]	EC50 [2]	Structure (SMILES)
196 nM	892 nM	[2H][C@](Nc1cc(Cl)c2ncc(C#N)c(NC34CC(C3)C4)c2c1)(c1ccc(F)cc1)c1cn(C2CC2)nn1 [Example 153, (S)-4-(bicyclo[1.1.1]pentan-1-ylamino)-8-chloro-6-(((1-cyclopropyl-1H-1,2,3-triazol-4-yl)(4-fluorophenyl)methyl-d)amino)quinoline-3-carbonitrile]
171 nM	> 10000 nM	[2H][C@](Nc1cc(Cl)c2ncc(C#N)c(N[C@H](CCN3CCCC3)c3ccccc3)c2c1)(c1ccc(F)cc1)c1cn(C2CC2)nn1 [Example 167, 8-chloro-6-(((1-cyclopropyl-1H-1,2,3-triazol-4-yl) (4-fluorophenyl)methyl-d)amino)-4-(((R)-1-phenyl-3-(pyrrolidin-1-yl)propyl)amino) quinoline-3-carbonitrile]
140 nM	1850 nM	[2H][C@](Nc1cc(Cl)c2ncc(C#N)c(NC(C)(C)CO)c2c1)(c1ccc(F)cc1)c1cn(C2CC2)nn1 [Example 173, (S)-8-chloro-6-(((1-cyclopropyl-1H-1,2,3-triazol-4-yl)(4-fluorophenyl)methyl-d)amino)-4-((1-hydroxy-2-methylpropan-2-yl)amino)quinoline-3-carbonitrile]
139 nM	1640 nM	[2H][C@](Nc1cc(OC)c2ncc(C#N)c(NCC(C)(C)C)c2c1)(c1ccc(F)cc1)c1cn(C2CC2)nn1 [Example 172, (S)-6-(((1-cyclopropyl-1H-1,2,3-triazol-4-yl)(4-fluorophenyl)methyl-d)amino)-8-methoxy-4-(neopentylamino) quinoline-3-carbonitrile]
114 nM	1340 nM	[2H][C@](Nc1cc(Cl)c2ncc(C#N)c(Nc3cccc(Cl)c3C)c2c1)(c1ccc(F)cc1)c1cn(C2CC2)nn1 [Example 159, (S)-8-chloro-4-((3-chloro-2-methylphenyl)amino)-6-(((1-cyclopropyl-1H-1,2,3-triazol-4-yl)(4-fluorophenyl)methyl-d)amino)quinoline-3-carbonitrile]
83 nM	809 nM	[2H][C@](Nc1cc(Cl)c2ncc(C#N)c(NCC3(C(F)(F)F)CC3)c2c1)(c1ccc(F)cc1)c1cn(C2CC2)nn1 [Example 176]
61 nM	979 nM	[2H][C@](Nc1cc(Cl)c2ncc(C#N)c(N[C@H](CCN3CCCCC3)c3ccccc3)c2c1)(c1ccc(F)cc1)c1cn(C2CC2)nn1 [Example 166, 8-chloro-6-(((1-cyclopropyl-1H-1,2,3-triazol-4-yl)(4-fluorophenyl)methyl-d)amino)-4-(((R)-1-phenyl-3-(piperidin-1-yl)propyl)amino)quinoline-3-carbonitrile]
48 nM	562 nM	[2H][C@](Nc1cc(-c2cccnc2)c2ncc(C#N)c(NCC(C)(C)C)c2c1)(c1ccc(F)cc1)c1cn(C2CC2)nn1 [Example 170, (S)-6-(((1-cyclopropyl-1H-1,2,3-triazol-4-yl)(4-fluorophenyl)methyl-d)amino)-4-(neopentylamino)-8-(pyridin-3-yl)quinoline-3-carbonitrile]
39 nM	576 nM	[2H][C@](Nc1cc(Cl)c2ncc(C#N)c(N[C@@H]3C[C@H]3C(F)(F)F)c2c1)(c1ccc(F)cc1)c1cn(C2CC2)nn1 [Example 154, 8-chloro-6-(((S)-(1-cyclopropyl-1H-1,2,3-triazol-4-yl)(4-fluorophenyl)methyl-d)amino)-4-(((1R,2R)-2-(trifluoromethyl)cyclopropyl)amino)quinoline-3-carbonitrile]
36 nM	348 nM	[2H][C@](Nc1cc(Cl)c2ncc(C#N)c(N[C@@H]3C[C@H]3CC)c2c1)(c1ccc(F)cc1)c1cn(C2CC2)nn1 [Example 155, 8-chloro-6-(((S)-(1-cyclopropyl-1H-1,2,3-triazol-4-yl)(4-fluorophenyl)methyl-d)amino)-4-(((1R,2R)-2-ethylcyclopropyl)amino)quinoline-3-carbonitrile]
30 nM	477 nM	[2H][C@](Nc1cc(Cl)c2ncc(C#N)c(NC3CC3(C)C)c2c1)(c1ccc(F)cc1)c1cn(C2CC2)nn1 (stereo partly drawn) [Example 156, 8-chloro-6-(((S)-(1-cyclopropyl-1H-1,2,3-triazol-4-yl)(4-fluorophenyl)methyl-d)amino)-4-((2,2-dimethylcyclopropyl)amino)quinoline-3-carbonitrile]
7 nM	213 nM	[2H][C@@](Nc1cc(C#N)c2ncc(C#N)c(NCC(C)(C)C)c2c1)(c1cn(C2CC2)nn1)c1ccccc1Cl [Example 152, (S)-6-(((2-chlorophenyl) (1-cyclopropyl-1H-1,2,3-triazol-4-yl)methyl-d)amino)-4-(neopentylamino) quinoline-3,8-dicarbonitrile]
3 nM	170 nM	[2H][C@](Nc1cc(Cl)c2ncc(C#N)c(Nc3cccc(Cl)c3OC)c2c1)(c1ccc(F)cc1)c1cn(C2CC2)nn1 [Example 163, (S)-8-chloro-4-((3-chloro-2-methoxyphenyl)amino)-6-(((1-cyclopropyl-1H-1,2,3-triazol-4-yl)(4-fluorophenyl)methyl-d)amino)quinoline-3-carbonitrile]
1 nM	15 nM	[2H][C@](Nc1cc(F)c2ncc(C#N)c(N[C@H](CCC#N)c3ccccc3)c2c1)(c1cccc(C#N)c1)c1cn(C2CC2)nn1 [Example 164, 4-(((R)-3-cyano-1-phenylpropyl)amino)-6-(((S)-(3-cyanophenyl)(1-cyclopropyl-1H-1,2,3-triazol-4-yl)methyl-d)amino)-8-fluoroquinoline-3-carbonitrile]
